Experimental findings from US6225307A, “Viral treatment” (priority 2000, dated 2001) are described below.

As a reminder, the IC50 is the concentration that gives 50% inhibition.

Structures are written as SMILES.

In assay [1] the target is HIV-1 integrase (Human immunodeficiency virus type 1 group M subtype B, UniProt P12497). As to the kind of experiment: Integrase inhibition assay. Type of assay: biochemical. The text has this:
A biochemical integrase assay described by Craigie et at (HIV, vol. 2: A practical Approach) Biochemistry, Molecular Biology and Drug Discovery Ed. J. Karn 1995) to screen agents for their ability to inhibit HIV-1 integrase. In this system, a kinased oligonucleotide serves as the target of 3' processing and the subsequent strand transfer reaction. The 3' processing reaction involves the removal of 2 nucleotides from the 31 ends of the substrate and this is followed by the strand transfer reaction in which the 3' ends are joined to the exposed 5' ends. The 20 μl reaction mixture contains 25 mM MOPS (pH 7.2), […] BSA, 10 mM , β-mercaptoethanol, 10% glycerol, 7.5 mM MnCl2, 25 nM (7 ng) substrate (Oligo's Etc., Wilsonville, Ore.) and 200 nM (128 ng) integrase (NIAID AIDS Research and Reference Reagent Program, Bethesda, Md.). The reaction proceeds at 37° C. for 1-2 hours and is terminated by the addition of 20 μl of sequencing stop solution (USB Amersham, Arlington Heights, Ill.). The reaction products are visualized by autoradiography following electrophoresis in 15% polyacrylamide 6M Urea gel. The substrate migrates as a 30 mer, the product of 3' processing migrates as an N-2 band and the strand transfer products migrate more slowly at various sizes larger than the substrate.

Assay [2] relates to HIV-1 cell line, CEMSKI. Description: Long term in vitro study, CEMSKI cells, reverse transcriptase analysis. Type of assay: cell-based. Particulars: for Reverse transcriptase data: 7 μg/ml. The protocol:
A microtiter-based reveres transcriptase (RT) reaction is utilized (Buckheit et al (1991) AIDS Research and Human Retroviruses 7:295-302). Tritiated thymidine triphosphate (NEN)(TTP) is resuspended in distilled water at 5 Ci/ml. Poly rA and oligo dT are prepared as a stock solution which is kept at -20° C. The RT reaction buffer is prepared fresh on a daily basis and consists of 125 μl 1M EGTA, 125 μl water, 125 μl Triton X-100, 50 μl Tris (pH 7.4), 50 μl MDDT, and 40 μl 1M MgCl2. These three solutions are mixed together in a ratio of 1 part TTP, 2.5 parts poly rA:oligo dT, 2.5 parts reaction buffer and 4 parts distilled water. Ten microliters of this reaction mixture is placed in a round bottom microtiter place and 15 μl of virus containing supernatant is added and mixed. The plate is incubated at 37° C. and incubated for 60 minutes. Following reaction, the reaction volume is spotted onto filter mats, washed 6 times for 5 minutes each in a 5% sodium phosphate buffer, 2 times for 1 minute each in distilled water, 2 times for 1 minute each in 70% ethanol, and then dried. The dried filter mat is placed in a plastic sample bag, Betaplate scintillation fluid is added and the bag is heat sealed. Incorporated radioactivity is quantified utilizing a Wallac Microbeta scintillation counter.
Acute infection of most established human cell lines with HIV- I results in the eventual establishment of a constitutive virus-producing chronically infected cell line. The cells can be passaged for long periods of time in culture without loss of virus production. These cells may be utilized to evaluate the effects of anti-HIV compounds on syncytium formation or to evaluate the effects of anti-HIV compounds on levels of virus production from these cells. […] Each of the cells contains an integrated HIV genome or provirus. […]
CEM-SS cells chronically infected with HIV isolate, for example SKI (CEM-SKI) are cultured in RPM1640 tissue culture medium supplemented with 10% fetal bovine serum and antibiotics. […] After a period of time, usually one week intervals of drug treatment, cells are evaluated to determine if the inhibitory activity of the compound has been affected by treatment of the cells with either compounds. […]
The cell populations contain integrated copies of the HIV genome and constitutively produce HIV at relatively high levels or are latently infected and only produce virus after stimulation with phorbol esters, tumor necrosis factor or IL6(U1 and ACH2). Reductions in virus products were observed when quantifying supernatant reverse transcriptase activity,
Toxicity Values are measured by XTT and activity of the compound in the tests is measured by a Reverse Transcriptase analysis. […]

`CCC1(c2cccc(OC(=O)Nc3ccc(Cl)cc3)c2)CCCCN(C)C1=O` (stereo not shown) [(4-chlorophenyl)-carbamic acid, 3-(hexahydro-3-ethyl-1-methyl-2-oxo-1H-azepin-3-yl) 2 phenyl ester] registered an IC50 in assay [1] greater than 249 µM. Also, the “activity as an integrase inhibitor” value in assay [1] was “did not show activity”. Besides, the “HIV-1 integrase inhibition, mean” value is 9908 in assay [1] (0.1 μg/ml), 10075 in assay [1] (1 μg/ml), 10097 in assay [1] (10 μg/ml) and 10942 in assay [1] (100 μg/ml). The “HIV-1 integrase inhibition, sample 1” value in assay [1] (0.1 μg/ml) is recorded as 10151.6; in assay [1] (1 μg/ml), 9644.6; in assay [1] (10 μg/ml), 10964.5; in assay [1] (100 μg/ml) it was 9648.5. In addition, the “HIV-1 integrase inhibition, sample 2” value amounted to 9664.3 in assay [1] (0.1 μg/ml), 10505.5 in assay [1] (1 μg/ml), 1129.7 in assay [1] (10 μg/ml) and 12235.7 in assay [1] (100 μg/ml). In addition, in assay [1] (0.1 μg/ml, read-out: % no drug control), the remaining activity at 0.1 µg/mL worked out at 104%. Further, the remaining activity at 1 µg/mL in assay [1] (1 μg/ml, read-out: % no drug control) was found to be 105%. Besides, in assay [1] (10 μg/ml, read-out: % no drug control), the remaining activity at 10 µg/mL worked out at 116%. Further, the remaining activity at 100 µg/mL in assay [1] (100 μg/ml, read-out: % no drug control) was determined as 114%. The Reverse transcriptase data was 8474 in assay [2] (Day 4), 7217 in assay [2] (Day 11) and 9141 in assay [2] (Day 18). For the same molecule, the “Reverse transcriptase data, continued test” value in assay [2] (run through 222 days) is recorded as “data remained consistent”.
